From patent US20260103465A1, “GLYCOGEN SYNTHASE KINASE 3 INHIBITORS AND USES THEREOF” (The Broad Institute, Inc., priority 2023, published 2026)
pIC50: −log10 of the molar value. Where two headings read alike, the source gives them in different places.

What was measured:
[1] = target: T1, GSK3a (GST-full length GSK3a) (Homo sapiens, UniProt P49840); test: GSK3a TR-FRET kinase inhibition assay; assay type: biochemical
T1 construct: GST-full length GSK3a [SignalChem G08-10G]; purchased SignalChem G08-10G
T1 sequence (P49840 whole entry): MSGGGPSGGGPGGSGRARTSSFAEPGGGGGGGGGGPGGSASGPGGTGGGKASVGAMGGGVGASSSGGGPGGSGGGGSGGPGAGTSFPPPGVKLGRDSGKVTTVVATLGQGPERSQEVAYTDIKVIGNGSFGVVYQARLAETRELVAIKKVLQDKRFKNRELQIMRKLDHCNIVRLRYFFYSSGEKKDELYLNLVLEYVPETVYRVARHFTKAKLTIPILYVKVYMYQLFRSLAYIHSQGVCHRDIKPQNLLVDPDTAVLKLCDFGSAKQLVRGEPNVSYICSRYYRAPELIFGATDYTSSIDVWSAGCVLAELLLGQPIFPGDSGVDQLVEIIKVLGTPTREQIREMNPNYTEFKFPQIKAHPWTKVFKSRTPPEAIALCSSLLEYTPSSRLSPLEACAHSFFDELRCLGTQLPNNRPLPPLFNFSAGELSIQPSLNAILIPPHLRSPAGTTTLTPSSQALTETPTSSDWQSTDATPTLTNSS
Method in brief: (§1)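 IC50 derived from normalized 665/615 TR-FRET signal (Tb anti-pSer641 antibody, streptavidin-d2), read after EDTA stop. Reaction: 1 nM GST-full-length enzyme, 30 min compound pre-incubation, 100 min at ambient temperature in Tris pH 7.5 with 1% DMSO, 200 nM biotinylated primed glycogen synthase peptide, ATP 2 μM to 1 mM.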

[2] = target: T2, GSK3b (GST-full length GSK3b) (Homo sapiens, UniProt P49841); test: GSK3b TR-FRET kinase inhibition assay; assay type: biochemical
T2 construct: GST-full length GSK3b: [SignalChem G08-9G]; purchased SignalChem G08-9G
T2 sequence (P49841 whole entry): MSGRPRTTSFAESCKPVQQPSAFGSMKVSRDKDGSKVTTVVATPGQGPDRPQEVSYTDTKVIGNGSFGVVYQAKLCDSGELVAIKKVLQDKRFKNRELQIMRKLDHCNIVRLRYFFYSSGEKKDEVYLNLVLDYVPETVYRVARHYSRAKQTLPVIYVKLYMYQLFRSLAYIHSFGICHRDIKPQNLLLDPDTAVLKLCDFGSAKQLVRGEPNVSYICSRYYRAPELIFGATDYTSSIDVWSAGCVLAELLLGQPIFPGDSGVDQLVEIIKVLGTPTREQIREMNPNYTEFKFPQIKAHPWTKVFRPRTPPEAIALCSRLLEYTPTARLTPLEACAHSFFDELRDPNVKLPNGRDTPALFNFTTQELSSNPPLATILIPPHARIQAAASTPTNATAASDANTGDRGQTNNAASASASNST
Method in brief: as §1

[3] = Human liver microsomal stability; assay type: in vitro ADME; settings: human liver microsomes
Experimental: Stability of compound (5 μL of a 10 mM DMSO solution) in human liver microsomes was tested in duplicate by incubating compound at 1 μM for 60 minutes at 37° C. Compound level at 60 minutes was compared to level at 0 minutes, and percent remaining was calculated. Order by selecting Microsomal Stability in Prometheus, checking boxes for desired species. Assay Controls: microsomes with NADPH without compound-matrix interference. Microsomes plus compound without NADPH—non-enzymatic instability.

[4] = system: MDR1-MDCK cell monolayers; test: MDR1/MDCK permeability assay; assay type: in vitro ADME; settings: for MDCK Permeability (MDR1-MDCK); Mean; Papp(A-B) (10^−6 cm/s): A to B; for MDCK Permeability (MDR1-MDCK); Mean; Papp(B-A) (10^−6 cm/s): B to A; for MDCK Permeability (MDR1-MDCK); Mean; P. Ratio(B-A/A-B) Efflux Ratio / MIDCK Permeability (MDR1-MDCK); Mean; P. Ratio(B-A/A-B) Efflux Ratio: Papp B-A/A-B
Source text: The MDR1/MDCK assay is run at WuXi and Absorption Systems. This assay is used to determine the blood-brain barrier (BBB) penetration potential of a test compound using MDR1-MDCK cell monolayers. Catalog number EA203.
• The percent recovery of the test compound from the Transwell® wells containing MDR1-MDCK cell monolayers • The apparent permeability (Papp) in both directions • The efflux ratio (Papp B to A)/(Papp A to B) • The blood-brain barrier penetration potential classification: • High when • Papp A to B≥3.0×10^−6 cm/s, and efflux<3.0 • Moderate when • Papp A to B≥3.0×10^−6 cm/s, and 10>efflux≥3.0 • Low when either • Papp A to B≥3.0×10^−6 cm/s, and […], or when • Papp A to B<[…].
• Test compound at 5 μM in HBSSg with maximum DMSO concentration not greater than 1%.
• Confluent monolayers of MDR1-MDCK cells, 7 to 11 days old.
• Receiver well with 1% BSA in modified Hanks buffer (HBSSg) • Apical and basolateral side at pH 7.4 • Dose two monolayers in each direction (N=2) • Dose apical side for (A to B) assessment • Dose basolateral side for (B to A) assessment • Sample both apical and basolateral sides at 120 minutes • Determine the concentrations of test compound using a generic LC-MS/MS method with a minimum 4 point calibration curve.
• The quality of the cell monolayer batch is verified using control compounds before monolayers are released for use • The quality of each monolayer used in the assay is verified by a TEER measurement and by calculating the Papp for a control compound.

[5] = 4 μM ATP, read-out: GSK3α TR-FRET 4 μM ATP GMean IC50
[6] = 10 μM ATP, read-out: GSK3a 10 μM ATP Average IC50
[7] = 100 μM ATP, read-out: GSK3a 100 μM ATP Average IC50
[8] = 1 mM ATP, Table 3, read-out: GSK3a TR-FRET 1 mM ATP Average IC50
[9] = 1 mM ATP, Table 4, read-out: GSK3α TR-FRET 1 mM ATP GMean IC50
[10] = 2 μM ATP, read-out: GSK3β TR-FRET 2 μM ATP GMean IC50
[11] = 10 μM ATP, read-out: GSK3b 10 μM ATP Average IC50
[12] = 100 μM ATP, read-out: GSK3b 100 μM ATP Average IC50
[13] = 1 mM ATP, Table 3, read-out: GSK3b TR-FRET 1 mM ATP Average IC50
[14] = 1 mM ATP, Table 4, read-out: GSK3β TR-FRET 1 mM ATP GMean IC50

pIC50 [1, 5]	pIC50 [1, 6]	pIC50 [1, 7]	pIC50 [1, 8]	pIC50 [1, 9]	pIC50 [2, 10]	pIC50 [2, 11]	pIC50 [2, 12]	pIC50 [2, 13]	pIC50 [2, 14]	Microsome Stability (Human) (DMPK_BIIB); Mean; in vitro t1/2 ([3]; Table 3) [min]	Microsome Stability (Human) (DMPK_BIIB); Mean; in vitro t1/2 ([3]; Table 4) [min]	MDCK Permeability (MDR1-MDCK); Mean; Papp(A-B) (10^−6 cm/s) ([4]; Table 4)	MDCK Permeability (MDR1-MDCK); Mean; Papp(B-A) (10^−6 cm/s) ([4]; Table 4)	MDCK Permeability (MDR1-MDCK); Mean; P. Ratio(B-A/A-B) Efflux Ratio ([4]; Table 4)	MDCK Permeability (MDR1-MDCK); Mean; Papp(A-B) (10^−6 cm/s) ([4]; Table 3)	MDCK Permeability (MDR1-MDCK); Mean; Papp(B-A) (10^−6 cm/s) ([4]; Table 3)	MIDCK Permeability (MDR1-MDCK); Mean; P. Ratio(B-A/A-B) Efflux Ratio ([4]; Table 3)	Structure (SMILES)
≥ 7.00	≥ 7.00	≥ 7.00	6.00 to 7.00	≥ 7.00	≥ 7.00	≥ 7.00	≥ 7.00	6.00 to 7.00	6.00 to 7.00	16	9.9	2.3 10^−6 cm/s	41 10^−6 cm/s	18				CCC1(c2cccc(-c3cncn3C(C)C)c2)C2=C(CC(C)(C)CC2=O)Nc2ncccc21 (single isomer, unassigned) [Compound 149A]
5.30 to 6.00	≥ 7.00	≥ 7.00	6.00 to 7.00		< 5.30	≥ 7.00	≥ 7.00	6.00 to 7.00		1.9					20 10^−6 cm/s	17 10^−6 cm/s	0.93	CCC1(c2cccc(-c3c(C)nn(C)c3C)c2)C2=C(CC(C)(C)CC2=O)Nc2ncccc21 (single isomer, unassigned) [Compound 150A]
≥ 7.00				6.00 to 7.00	≥ 7.00				5.30 to 6.00		2.7	2.9 10^−6 cm/s	29 10^−6 cm/s	9.9				CCC1(c2cccc(-c3c(C)nn(C)c3C)c2)C2=C(CC(C)(C)CC2=O)Nc2ncccc21 (single isomer, unassigned) [Compound 150B]
< 5.30					< 5.30					6.4					15 10^−6 cm/s	9.5 10^−6 cm/s	0.62	CCC1(c2cccc(-c3c(F)cncc3OC)c2)C2=C(CC(C)(C)CC2=O)Nc2ncccc21 (single isomer, unassigned) [Compound 154A]
≥ 7.00			4.70 to 5.30	≥ 7.00	≥ 7.00			4.70 to 5.30	6.00 to 7.00		6.6	3.1 10^−6 cm/s	25 10^−6 cm/s	8.3				CCC1(c2cccc(-c3c(F)cncc3OC)c2)C2=C(CC(C)(C)CC2=O)Nc2ncccc21 (single isomer, unassigned) [Compound 154B]
6.00 to 7.00					5.30 to 6.00					10					12 10^−6 cm/s	6.9 10^−6 cm/s	0.59	CCC1(c2cccc(-c3c(F)cncc3OC)c2)C2=C(CC(C)(C)CC2=O)Nc2ncc(F)cc21 (single isomer, unassigned) [Compound 161A]
≥ 7.00			6.00 to 7.00	≥ 7.00	≥ 7.00			5.30 to 6.00	≥ 7.00		5.6	5.2 10^−6 cm/s	33 10^−6 cm/s	6.4				CCC1(c2cccc(-c3c(F)cncc3OC)c2)C2=C(CC(C)(C)CC2=O)Nc2ncc(F)cc21 (single isomer, unassigned) [Compound 161B]
≥ 7.00				6.00 to 7.00	≥ 7.00				6.00 to 7.00		4.7	4.4 10^−6 cm/s	24 10^−6 cm/s	5.5				CCC1(c2cccc(-c3ccnc4c3CCCC4)c2)C2=C(CC(C)(C)CC2=O)Nc2ncc(F)cc21 (single isomer, unassigned) [Compound 165B]
			6.00 to 7.00					6.00 to 7.00		33					2.5 10^−6 cm/s	2.2 10^−6 cm/s	0.90	CC(C)(C)Cc1cnccc1-c1cccc(C2(C)C3=C(CC(C)(C)CC3=O)Nc3ncc(F)cc32)c1 (single isomer, unassigned) [Compound 168A]

The remaining lines, values behind:

Structure (SMILES)	pIC50 [1, 5]	pIC50 [1, 6]	pIC50 [1, 7]	pIC50 [1, 8]	pIC50 [1, 9]	pIC50 [2, 10]	pIC50 [2, 11]	pIC50 [2, 12]	pIC50 [2, 13]	pIC50 [2, 14]	Microsome Stability (Human) (DMPK_BIIB); Mean; in vitro t1/2 ([3]; Table 3) [min]	Microsome Stability (Human) (DMPK_BIIB); Mean; in vitro t1/2 ([3]; Table 4) [min]	MDCK Permeability (MDR1-MDCK); Mean; Papp(A-B) (10^−6 cm/s) ([4]; Table 4)	MDCK Permeability (MDR1-MDCK); Mean; Papp(B-A) (10^−6 cm/s) ([4]; Table 4)	MDCK Permeability (MDR1-MDCK); Mean; P. Ratio(B-A/A-B) Efflux Ratio ([4]; Table 4)	MDCK Permeability (MDR1-MDCK); Mean; Papp(A-B) (10^−6 cm/s) ([4]; Table 3)	MDCK Permeability (MDR1-MDCK); Mean; Papp(B-A) (10^−6 cm/s) ([4]; Table 3)	MIDCK Permeability (MDR1-MDCK); Mean; P. Ratio(B-A/A-B) Efflux Ratio ([4]; Table 3)
CCC1(c2cccc(O)c2)C2=C(CC(C)(C)CC2=O)Nc2ncccc21 (single isomer, unassigned) [Compound 1004A]	≥ 7.00					≥ 7.00						7.7	1.2 10^−6 cm/s	42 10^−6 cm/s	37			
CCC1(c2cccc(O)c2)C2=C(CC(C)(C)CC2=O)Nc2ncccc21 (single isomer, unassigned) [Compound 1004B]	5.30 to 6.00					< 5.30						5.3	0.7 10^−6 cm/s	47 10^−6 cm/s	65			
CCC1(c2ccccc2)C2=C(Nc3ncccc31)C(F)C(C)(C)CC2=O (single isomer, unassigned) [Compound 1006C]	5.30 to 6.00					5.30 to 6.00						37	18 10^−6 cm/s	31 10^−6 cm/s	1.8			
CCC1(c2ccccc2)C2=C(CC(C)(C)NC2=O)Nc2ncc(F)cc21 (single isomer, unassigned) [Compound 1007B]	≥ 7.00				5.30 to 6.00	≥ 7.00				4.70 to 5.30		211	7.8 10^−6 cm/s	45 10^−6 cm/s	5.7			
CCC1(c2ccccc2)C2=C(CC3(CCC3)CC2=O)Nc2ncc(F)cc21 (single isomer, unassigned) [Compound 1008A]	≥ 7.00				6.00 to 7.00	≥ 7.00				5.30 to 6.00		19	22 10^−6 cm/s	26 10^−6 cm/s	1.2			
CCC1(c2ccccc2)C2=C(CC3(CCC3)CC2=O)Nc2ncc(F)cc21 (single isomer, unassigned) [Compound 1008B]	5.30 to 6.00					5.30 to 6.00						1.6	21 10^−6 cm/s	31 10^−6 cm/s	1.5			
